Test results from article PMC6216040, “Repurposing of an old drug: In vitro and in vivo efficacies of buparvaquone against Echinococcus multilocularis” (International Journal for Parasitology: Drugs and Drug …, 2018).
Read-outs that look alike come from different tables or passages of the source.

Test system: E. multilocularis metacestodes
Assay: PGI-assay: drug-induced damage on in vitro cultured metacestodes (Pathogen Box screening cascade and EC50)
Assay type: cell-based, Echinococcus multilocularis
Settings: for PGI release, % of the Tx-100 control, 5d / PGI release, % of the Tx-100 control, 12d / cytotoxicity at 10 µM: 10 µM, singlets; for cytotoxicity at 10 µM: Echinococcus multilocularis; for activity in the screen at 10 μM (confirmed in triplicates, >20% relative PGI release): 5 and 12 days
[1] = confirmatory screening at 10 µM in triplicates, 5 days of incubation, values as % of Tx-100 control
[2] = confirmatory screening at 10 µM in triplicates, 12 days of incubation, values as % of Tx-100 control
[3] = 120 h, 5 days of incubation, read-out: PGI release, % of the Tx-100 control, 5d
[4] = 288 h, 12 days of incubation, read-out: PGI release, % of the Tx-100 control, 12d
[5] = 1 µM, triplicates, 5 days of incubation
[6] = 1 µM, triplicates, 12 days of incubation

SMILES	PGI release, % of the Tx-100 control, 5d (5 days of incubation)	PGI release, % of the Tx-100 control, 12d (12 days of incubation)	other results
O=C(NC1CC1)c1ccc(N2CCOc3ccc(Cl)cc32)s1 [MMV020537]	1.89%	0.98%	–
CCN(CC)S(=O)(=O)c1ccc(C(=O)Nc2cc(C)nn2-c2nc(C)c(C)c(=O)[nH]2)cc1 [MMV595321]	-0.14%	-1.13%	–
CC(C)(C(=O)Nc1ccc(F)cc1)n1cc(-c2ccccc2F)cn1 [MMV687239]	0.07%	101.93%	PGI release, % of Tx-100 control, average, 5d [1]: -0.64%; PGI release, % of Tx-100 control, average, 12d [2]: -1.06%
Oc1c(I)cc(I)c2cccnc12 [MMV002817, Diiodohydroxyquinoline, reference compound]	–	–	cytotoxicity at 10 µM [3]: -1.42%; cytotoxicity at 10 µM [4]: -0.41%
Cc1cc(C(=O)Nc2ccc(-c3ccccc3)cc2)no1 [MMV020152]	0.07%	-0.81%	–
CNc1cc(C)nc(C2CN(C(=O)c3n[nH]c4ccccc34)CCO2)c1 (stereo not drawn) [MMV689709]	-5.26%	58.81%	PGI release, % of Tx-100 control, average, 5d [1]: -0.32%; PGI release, % of Tx-100 control, average, 12d [2]: -0.96%
NCC(c1cccs1)S(=O)(=O)c1ccccc1 (stereo not drawn) [MMV688557]	0.26%	-2.41%	–
CS(=O)(=O)c1ccccc1C(=O)N(Cc1ccccc1)c1ccccc1 [MMV688798]	13.11%	63.28%	PGI release, % of Tx-100 control, average, 5d [1]: -0.92%; PGI release, % of Tx-100 control, average, 12d [2]: -1.65%
O=C(C1CCN(c2nnnn2-c2ccccc2)CC1)N1CCc2ccccc2C1 [MMV009135]	-0.49%	-1.30%	–
Cc1ccc2nc(C)c(-c3ccn(Cc4ccccc4)n3)n2c1 [MMV688939]	15.20%	102.25%	PGI release, % of Tx-100 control, average, 5d [1]: 3.21%; PGI release, % of Tx-100 control, average, 12d [2]: 3.18%
Cc1ccc2cc(C3NC(=O)c4ccccc4N3)c(Cl)nc2c1 (stereo not drawn) [MMV019807]	1.08%	2.05%	–
COc1ccc(OC)c(NCc2ccc3nc(N)nc(N)c3c2Cl)c1 [MMV675968]	-0.10%	8.05%	–
CS(=O)(=O)c1ccc(C(=O)N(CC2CCCO2)c2nc3ccccc3s2)cc1[N+](=O)[O-] (stereo not drawn) [MMV688761]	1.26%	0.42%	–
COc1ccc(CN2CCOc3ccc(C(C)(O)CN(C)C)cc3C2)cc1C (stereo not drawn) [MMV008439]	-0.31%	-1.11%	–
O=C(Nc1nc(-c2ccccn2)cs1)c1cncn1-c1ccccc1 [MMV676512]	0.19%	0.30%	–
FC(F)(F)c1nnc2ccc(Cl)nn12 [MMV069458]	-0.54%	0.02%	–
CC1CS(=O)(=O)CCN1/N=C/c1ccc([N+](=O)[O-])o1 (stereo not drawn) [MMV001499, Nifurtimox, reference compound]	–	–	cytotoxicity at 10 µM [3]: 2.54%; cytotoxicity at 10 µM [4]: 3.97%
COc1ccc(N(CCc2cccc(C)n2)C(C)=O)cc1 [MMV675995]	1.72%	1.78%	–

SMILES	PGI release, % of the Tx-100 control, 5d (5 days of incubation)	PGI release, % of the Tx-100 control, 12d (12 days of incubation)	other results
CNc1nnc(Sc2cnn(-c3ccccc3)c(=O)c2Cl)s1 [MMV688763]	6.98%	14.69%	–
CC(C)=CCC/C(C)=C\CNCCNC1C2CC3CC(C2)CC1C3 (stereo not drawn) [MMV687273]	8.55%	5.83%	–
O=C(Nc1ccc(N2CCNCC2)cc1)c1ccn2ncc(-c3cccc(Cl)c3)c2n1 [MMV022478]	20.71%	24.08%	PGI release, % of Tx-100 control, average, 5d [1]: 17.77%; PGI release, % of Tx-100 control, average, 12d [2]: 19.68%
COc1cc(Br)cc2cc(C(=O)Nc3cccc(C(F)(F)F)c3)c(=O)oc12 [MMV688891]	-4.56%	-1.74%	–
Cc1cc(C)n(-c2ccc(NC(=O)C3CCN(Cc4cnc(C)s4)CC3)cc2)n1 [MMV007625]	0.65%	25.58%	PGI release, % of Tx-100 control, average, 5d [1]: -1.00%; PGI release, % of Tx-100 control, average, 12d [2]: -1.56%
COc1ccc2nc(C)cc(OCC(=O)Nc3ccccc3OC)c2c1 [MMV687188]	0.23%	4.44%	–
Cc1ccc2[nH]c(C3CCCNC3)c(-c3ccncc3)c2c1 (stereo not drawn) [MMV024311]	-0.16%	-1.97%	–
COC(=O)c1ccc(F)cc1NS(=O)(=O)c1cccc(-c2cnn(Cc3ccccc3)c2)c1 [MMV688350]	-0.16%	0.44%	–
COc1ccc(-c2nc(-c3cccc(NC(=O)Cc4ccc(F)cc4)c3)no2)cc1OC [MMV676571]	-1.41%	1.58%	–
Clc1ccc(-n2cc(COc3ccnc4ccccc34)nn2)cc1 [MMV675994]	-6.67%	46.84%	PGI release, % of Tx-100 control, average, 5d [5]: -4.24%; PGI release, % of Tx-100 control, average, 12d [6]: -12.79%; activity in the screen at 10 μM (confirmed in triplicates, >20% relative PGI release): active; PGI release, % of Tx-100 control, average, 5d [1]: 26.02%; PGI release, % of Tx-100 control, average, 12d [2]: 73.87%
CCC(Sc1nc2ccccc2o1)C(=O)Nc1nccs1 (stereo not drawn) [MMV676383]	0.61%	4.85%	–
CC(C)C(C(=O)Nc1ccc(S(=O)(=O)N(C)C)cc1)c1ccc(Cl)cc1 (stereo not drawn) [MMV020391]	-0.90%	-4.50%	–
c1ccc(Oc2ccc(-c3cc(N4CCOCC4)n[nH]3)cc2)cc1 [MMV045105]	-0.42%	0.07%	–
COC(=O)c1cccc2oc(-c3cccc(OC)c3NC(=O)c3cc(-c4ccccc4)on3)nc12 [MMV676186]	1.00%	13.03%	–
Cc1[nH]c2ccccc2c1C(c1cccs1)N1CCN(C)CC1 (stereo not drawn) [MMV688768]	19.18%	27.24%	PGI release, % of Tx-100 control, average, 5d [1]: 5.02%; PGI release, % of Tx-100 control, average, 12d [2]: 7.48%
COc1ccc(C2(C(=O)Nc3ccc(Br)cc3)CCCC2)cc1 [MMV200748]	-1.03%	-1.33%	–
CCOC(=O)NC(=O)c1ccsc1NC(=O)c1nc2ccccc2s1 [MMV090930]	11.85%	28.09%	PGI release, % of Tx-100 control, average, 5d [5]: 2.46%; PGI release, % of Tx-100 control, average, 12d [6]: 6.26%; activity in the screen at 10 μM (confirmed in triplicates, >20% relative PGI release): active; PGI release, % of Tx-100 control, average, 5d [1]: 13.69%; PGI release, % of Tx-100 control, average, 12d [2]: 46.13%
CN(C(=O)c1cc2c(-c3cncnc3)cccc2[nH]1)c1ccccc1 [MMV024443]	-1.32%	3.28%	–
